According to patent publication US10766914B2, “DNA alkylating agents” (OBI PHARMA, INC., priority 2015, dated 2020):
Read-outs that look alike come from different tables or passages of the source.

Tested on: H460 cells
Assay: Proliferation assay in H460 cells (2 hr exposure, AlamarBlue)
Assay type: cell-based, human
Details: wash, 70 hrs growth, read-out: IC 50 in proliferation assay in H460 cells
Method: In vitro proliferation data on the H460 […] human tumor cell line is reported above in the compound table.
Specifically, exponentially growing cells were seeded at a density of 4×10^3 cells per well in a 96 well plate and incubated at 37° C. in 5% CO2, 95% air and 100% relative humidity for 24 hours prior to addition of test compounds. Compounds were solubilized in 100% DMSO at 200 times the desired final test concentration. At the time of drug addition, compounds were further diluted to 4 times the desired final concentration with complete medium. Aliquots of 50 μl of compound at specified concentrations were added to microtiter wells already containing 150 μl of medium, resulting in the final drug concentration reported. After drug addition, the plates were incubated for an additional 2 hours at 37° C., 5% CO2, 95% air, and 100% relative humidity, then the drug was washed off and fresh medium was added and the plates were incubated for addition 70 hrs at 37° C., 5% CO2, 95% air and 100% relative humidity. At the end of this incubation, the viable cells were quantified using the AlamarBlue assay. The drug concentration resulting in growth inhibition of 50% (IC50) was calculated using Prism software (Irvine, Calif.), and the results were listed in the table.

[1] = Homo sapiens, NCI-H460, 2 hrs exposure

Compound	IC50 [1]	IC50 (2 hrs exposure)
CC(OP(=O)(N1CC1)N1CC1)c1cc(Oc2ccccc2)c([N+](=O)[O-])cc1F (stereo not drawn) [Compound 2846]	60 nM	–
CCOC(=O)c1ccc(Oc2cc(C(C)OP(=O)(N3CC3)N3CC3)ccc2[N+](=O)[O-])cc1 (stereo not drawn) [Compound 2853]	< 5 nM	–
CCOC(=O)c1cccc(Oc2cc(C(C)OP(=O)(N3CC3)N3CC3)ccc2[N+](=O)[O-])c1 (stereo not drawn) [Compound 2854]	< 5 nM	–
CC(OP(=O)(N1CC1)N1CC1)c1ccc([N+](=O)[O-])c(Oc2cccc(N(C)C)c2)c1 (stereo not drawn) [Compound 2855]	30 nM	–
CC(OP(=O)(N1CC1)N1CC1)c1ccc([N+](=O)[O-])c(Oc2ccc(Cl)cc2)c1 (stereo not drawn) [Compound 2860]	10 nM	–
CC(OP(=O)(N1CC1)N1CC1)c1ccc([N+](=O)[O-])c(Oc2ccc(F)cc2)c1 (stereo not drawn) [Compound 2861]	20 nM	–
CC(OP(=O)(N1CC1)N1CC1)c1ccc([N+](=O)[O-])c(Oc2ccccc2Cl)c1 (stereo not drawn) [Compound 2862]	40 nM	–
CC(OP(=O)(N1CC1)N1CC1)c1ccc([N+](=O)[O-])c(Oc2ccc(F)cc2F)c1 (stereo not drawn) [Compound 2863]	20 nM	–
CC(OP(=O)(N1CC1)N1CC1)c1ccc([N+](=O)[O-])c(Oc2ccc(Cl)cc2Cl)c1 (stereo not drawn) [Compound 2864]	20 nM	–
CC(OP(=O)(N1CC1)N1CC1)c1ccc([N+](=O)[O-])c(Oc2ccccc2F)c1 (stereo not drawn) [Compound 2865]	30 nM	–
CC(OP(=O)(N1CC1)N1CC1)c1ccc([N+](=O)[O-])c(Oc2ccc3c(c2)OCO3)c1 (stereo not drawn) [Compound 2866]	20 nM	–
CC(OP(=O)(N1CC1)N1CC1)c1ccc([N+](=O)[O-])c(Oc2cccc(C(F)(F)F)c2)c1 (stereo not drawn) [Compound 2871]	30 nM	–
CC(OP(=O)(N1CC1)N1CC1)c1ccc([N+](=O)[O-])c(Oc2ccc(C#N)cc2)c1 (stereo not drawn) [Compound 2872]	30 nM	–
CC(OP(=O)(N1CC1)N1CC1)c1ccc([N+](=O)[O-])c(Oc2ccccn2)c1 (stereo not drawn) [Compound 2874]	500 nM	–
O=[N+]([O-])c1ccc(COP(=O)(N2CC2)N2CC2)cc1Oc1ccccn1 [Compound 2875]	3200 nM	–
CCOC(=O)c1ccc(Oc2cc(COP(=O)(N3CC3)N3CC3)ccc2[N+](=O)[O-])cc1 [Compound 2876]	3 nM	–
O=[N+]([O-])c1ccc(COP(=O)(N2CC2)N2CC2)cc1Oc1cccnc1 [Compound 2877]	20 nM	–
CC(OP(=O)(N1CC1)N1CC1)c1ccc([N+](=O)[O-])c(Oc2nc3ccccc3s2)c1 (stereo not drawn) [Compound 2878]	4400 nM	–
CC(OP(=O)(N1CC1)N1CC1)c1ccc([N+](=O)[O-])c(Oc2ccc(S(N)(=O)=O)cc2)c1 (stereo not drawn) [Compound 2880]	100 nM	–
CC(OP(=O)(N1CC1)N1CC1)c1ccc([N+](=O)[O-])c(Oc2ccc(S(=O)(=O)N(C)C)cc2)c1 (stereo not drawn) [Compound 2881]	30 nM	–
CNC(=O)c1cccc(Oc2cc(C(C)OP(=O)(N3CC3)N3CC3)ccc2[N+](=O)[O-])c1 (stereo not drawn) [Compound 2884]	10 nM	–
CC(OP(=O)(N1CC1)N1CC1)c1ccc([N+](=O)[O-])c(Oc2ccccc2C(=O)N(C)C)c1 (stereo not drawn) [Compound 2885]	3700 nM	–

Compound	IC50 [1]	IC50 (2 hrs exposure)
NS(=O)(=O)c1ccc(Oc2cc(COP(=O)(N3CC3)N3CC3)ccc2[N+](=O)[O-])cc1 [Compound 2887]	200 nM	–
Cc1ccc(Oc2cc(C(C)OP(=O)(N3CC3)N3CC3)ccc2[N+](=O)[O-])cn1 (stereo not drawn) [Compound 2891]	30 nM	–
O=[N+]([O-])c1ccc(COP(=O)(N2CC2)N2CC2)cc1Oc1ccc(F)nc1 [Compound 2892]	2 nM	–
CC(OP(=O)(N1CC1)N1CC1)c1ccc([N+](=O)[O-])c(Oc2ccc(F)nc2)c1 (stereo not drawn) [Compound 2893]	20 nM	–
COc1ccc(Oc2cc(COP(=O)(N3CC3)N3CC3)ccc2[N+](=O)[O-])cc1 [Compound 2895]	4 nM	–
Nc1ccc(Oc2cc(COP(=O)(N3CC3)N3CC3)ccc2[N+](=O)[O-])cc1 [Compound 2896]	100 nM	–
CC(OP(=O)(N1CC1)N1CC1)c1ccc([N+](=O)[O-])c(Oc2ccc(-c3nccs3)cc2)c1 (stereo not drawn) [Compound 2898]	10 nM	–
O=[N+]([O-])c1ccc(COP(=O)(N2CC2)N2CC2)cc1Oc1ccc(-c2nccs2)cc1 [Compound 2899]	4 nM	–
CC(OP(=O)(N1CC1)N1CC1)c1ccc([N+](=O)[O-])c(Oc2ccc3ncsc3c2)c1 (stereo not drawn) [Compound 2900]	40 nM	–
CNS(=O)(=O)c1ccc(Oc2cc(C(C)OP(=O)(N3CC3)N3CC3)ccc2[N+](=O)[O-])cc1 (stereo not drawn) [Compound 2902]	90 nM	–
CNS(=O)(=O)c1ccc(Oc2cc(COP(=O)(N3CC3)N3CC3)ccc2[N+](=O)[O-])cc1 [Compound 2903]	30 nM	–
CC(OP(=O)(N1CC1)N1CC1)c1ccc([N+](=O)[O-])c(Oc2ccc(-c3ncco3)cc2)c1 (stereo not drawn) [Compound 2904]	10 nM	–
CC(OP(=O)(N1CC1)N1CC1)c1ccc(Oc2ccccc2)c([N+](=O)[O-])c1 (stereo not drawn) [Compound 2906, reference compound]	4000 nM	–
CC(OP(=O)(N1CC1)N1CC1)c1ccc([N+](=O)[O-])c(Oc2ccc(C(=O)N(C)C)cc2)c1 (stereo not drawn) [Compound 2908]	7 nM	–
CNC(=O)c1ccc(Oc2cc(C(C)OP(=O)(N3CC3)N3CC3)ccc2[N+](=O)[O-])cc1 (stereo not drawn) [Compound 2909]	10 nM	–
CNC(=O)c1ccccc1Oc1cc(C(C)OP(=O)(N2CC2)N2CC2)ccc1[N+](=O)[O-] (stereo not drawn) [Compound 2910]	3500 nM	–
CC(OP(=O)(N1CC1)N1CC1)c1ccc([N+](=O)[O-])c(Oc2ccc(NS(C)(=O)=O)cc2)c1 (stereo not drawn) [Compound 2912]	40 nM	–
CC(OP(=O)(N1CC1)N1CC1)c1ccc([N+](=O)[O-])c(Oc2ccc(NS(=O)(=O)C(F)(F)F)cc2)c1 (stereo not drawn) [Compound 2913]	70 nM	–
CC(OP(=O)(N1CC1)N1CC1)c1ccc([N+](=O)[O-])c(Oc2ccc3ocnc3c2)c1 (stereo not drawn) [Compound 2914]	30 nM	–
O=[N+]([O-])c1ccc(COP(=O)(N2CC2)N2CC2)cc1Oc1ccc2ocnc2c1 [Compound 2915]	90 nM	–
CC(OP(=O)(N1CC1)N1CC1)c1ccc([N+](=O)[O-])c(Oc2ccc(S(=O)(=O)Nc3ccc(F)cc3)cc2)c1 (stereo not drawn) [Compound 2916]	120 nM	–
CC(OP(=O)(N1CC1)N1CC1)c1ccc([N+](=O)[O-])c(Oc2ccc3cnn(C)c3c2)c1 (stereo not drawn) [Compound 2917]	20 nM	–

Compound	IC50 [1]	IC50 (2 hrs exposure)
Cn1ncc2ccc(Oc3cc(COP(=O)(N4CC4)N4CC4)ccc3[N+](=O)[O-])cc21 [Compound 2918]	3 nM	–
CC(OP(=O)(N1CC1)N1CC1)c1ccc([N+](=O)[O-])c(Oc2ccc3c(cnn3C)c2)c1 (stereo not drawn) [Compound 2919]	4 nM	–
CC(OP(=O)(N1CC1)N1CC1)c1ccc([N+](=O)[O-])c(Oc2ccc3c(c2)ncn3C)c1 (stereo not drawn) [Compound 2920]	20 nM	–
Cn1cnc2cc(Oc3cc(COP(=O)(N4CC4)N4CC4)ccc3[N+](=O)[O-])ccc21 [Compound 2921]	7 nM	–
CC(OP(=O)(N1CC1)N1CC1)c1ccc([N+](=O)[O-])c(Oc2cccc([N+](=O)[O-])c2)c1 (stereo not drawn) [Compound 2922]	–	3 nM
CC(OP(=O)(N1CC1)N1CC1)c1ccc([N+](=O)[O-])c(Oc2ccc(C(N)=O)cc2)c1 (stereo not drawn) [Compound 2923]	20 nM	–
CC(OP(=O)(N1CC1)N1CC1)c1ccc([N+](=O)[O-])c(Oc2cccc(C(N)=O)c2)c1 (stereo not drawn) [Compound 2924]	100 nM	–
CC(OP(=O)(N1CC1)N1CC1)c1ccc([N+](=O)[O-])c(Oc2cncnc2)c1 (stereo not drawn) [Compound 2925]	40 nM	–
N#Cc1ccc(Oc2cc(COP(=O)(N3CC3)N3CC3)ccc2[N+](=O)[O-])cc1 [Compound 2927]	3 nM	–
Cc1nc2cc(Oc3cc(C(C)OP(=O)(N4CC4)N4CC4)ccc3[N+](=O)[O-])ccc2s1 (stereo not drawn) [Compound 2928]	30 nM	–
Cc1nc2cc(Oc3cc(COP(=O)(N4CC4)N4CC4)ccc3[N+](=O)[O-])ccc2s1 [Compound 2929]	30 nM	–
Cc1nc2ccc(Oc3cc(C(C)OP(=O)(N4CC4)N4CC4)ccc3[N+](=O)[O-])cc2s1 (stereo not drawn) [Compound 2930]	2 nM	–
CC(OP(=O)(N1CC1)N1CC1)c1ccc([N+](=O)[O-])c(Oc2c(F)cccc2F)c1 (stereo not drawn) [Compound 2932]	20 nM	–
CC(OP(=O)(N1CC1)N1CC1)c1ccc([N+](=O)[O-])c(Oc2cnc3cccnc3c2)c1 (stereo not drawn) [Compound 2933]	100 nM	–
O=[N+]([O-])c1ccc(Oc2cc(COP(=O)(N3CC3)N3CC3)ccc2[N+](=O)[O-])cc1 [Compound 2934]	3 nM	–
CC(OP(=O)(N1CC1)N1CC1)c1ccc([N+](=O)[O-])c(Oc2ccc([N+](=O)[O-])cc2)c1 (stereo not drawn) [Compound 2935]	20 nM	–
CNC(=O)c1cccc(Oc2cc(COP(=O)(N3CC3)N3CC3)ccc2[N+](=O)[O-])c1 [Compound 2937]	2 nM	–
CN(C)C(=O)c1ccccc1Oc1cc(COP(=O)(N2CC2)N2CC2)ccc1[N+](=O)[O-] [Compound 2938]	2500 nM	–
CNC(=O)c1ccccc1Oc1cc(COP(=O)(N2CC2)N2CC2)ccc1[N+](=O)[O-] [Compound 2939]	2700 nM	–
CNC(=O)c1ccc(Oc2cc(COP(=O)(N3CC3)N3CC3)ccc2[N+](=O)[O-])cc1 [Compound 2940]	5 nM	–
CN(C)C(=O)c1ccc(Oc2cc(COP(=O)(N3CC3)N3CC3)ccc2[N+](=O)[O-])cc1 [Compound 2941]	4 nM	–
CC(OP(=O)(N1CC1)N1CC1)c1ccc([N+](=O)[O-])c(Oc2cccc([N+](=O)[O-])c2)c1 (stereo not drawn) [Compound 2942]	–	20 nM
